These results are taken from patent US11951169B2, “Pharmaceutical preparation with curcuminoids nanoparticles and a method for producing the same” (AASTAR PTE LTD, priority 2019, dated 2024).

The series in a line: Dissolution test (USP apparatus Type II paddles) of capsules containing the gel liquid, HPLC analysis. Format: physicochemical. The settings on record: capsule. The procedure:
An Agilent 1260 Infinity HPLC system consists of a G1330B thermostat, a G1329B auto-injector, a G13150 diode array detector, a G1322A degasser and a high-pressure binary pump. Signal/Noise ratio of the chromatogram generated from this HPLC was used for qualitative and quantitative analyses in this study. The column used was an Angilent Poroshell 120 EC-C18 ([…], 2.7 am). The HPLC was run for 10 minutes at a column temperature of 35° C. under a flow rate of 0.3 ml/min with injection volume being 5 μl. The detection spectrum was set at 426 nm using an elusion medium comprising acetonitrile and 0.1% of aqueous formic acid in a volume ratio of 1:2.
2.0 g of NaCl and 7 ml of HCl were dissolved in 1 L of ultrapure water. The pH was adjusted to 1.2, by using 2M NaOH. 13.121 g of Na2HPO4 were dissolved in 1 L of ultrapure water. The pH was adjusted to 6.8.
A Vankel Varain VK 70000 Dissolution System consisting of VK7000 dissolution system, VK 750D heating circulator, system monitor, 6 Vankel vessels and apparatus Type II paddles, was used in the preparation of a dissolution sample from capsules containing the gel liquid.
The dissolution test was performed in compliance with United States Pharmacopoeia using apparatus Type II paddles. […] 6 capsules were added into 6 vessels respectively. […] 2 μl of the filtrate was injected into the HPLC system for analysis.
Further, 250 ml of pH 6.8 solution was added to the same vessel at 45 minutes and the pH was adjusted to 6.8 using 2M NaOH within 5 minutes. 1-2 ml of the dissolution sample was then collected after 60 minutes, 75 minutes and 120 minutes followed by filtering through a 0.45 μm membrane immediately. 2 μl of the filtrate was injected into the HPLC system for analysis.

On to `COc1cc(/C=C/C(=O)CC(=O)/C=C/c2ccc(O)c(OC)c2)ccc1O` [Curcumin, curcumin], for which the Weight dissolved amounted to 590 ± 78 µg (pH 1.2, 10 min); 4250 ± 686 µg (pH 1.2, 15 min); 18908 ± 1819 µg (pH 1.2, 30 min); 24155 ± 1397 µg (pH 6.8, 45 min); 23746 ± 1347 µg (pH 6.8, 60 min); 23497 ± 1859 µg (pH 6.8, 75 min). Also, the Weight dissolved (pH 6.8, 120 min) turned out to be 23937 ± 1826 µg.
In turn, `COc1cc(/C=C/C(=O)CC(=O)/C=C/c2ccc(O)cc2)ccc1O` [DMC, demthoxycurcumin] yielded a Weight dissolved (pH 1.2, 15 min) of 195 ± 22 µg; a Weight dissolved (pH 1.2, 30 min) of 831 ± 87 µg; a Weight dissolved (pH 6.8, 45 min) of 745 ± 48 µg; a Weight dissolved (pH 6.8, 60 min) of 747 ± 45 µg; a Weight dissolved (pH 6.8, 75 min) of 739 ± 68 µg; a Weight dissolved (pH 6.8, 120 min) of 763 ± 69 µg.
